Measured values taken from PubChem BioAssay (NCI).
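Growth conditions: 96-well plates. Treatment: test compound, 48 hours, 5 concentrations. Analysis: linear interpolation between bracketing concentrations; unreached endpoints set to highest concentration. Definition used: TGI = concentration required for complete inhibition of growth.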

Key:
Assay in all cases: NCI tumour cell line growth inhibition, 48 h
A549 NSCLC = tested on: A549 NSCLC
MDA-N = tested on: MDA-N
MDA-MB-435 = tested on: MDA-MB-435
EKVX NSCLC = tested on: EKVX NSCLC
T-47D breast = tested on: T-47D breast
SF-268 CNS = tested on: SF-268 CNS
PC-3 prostate = tested on: PC-3 prostate
SNB-75 CNS = tested on: SNB-75 CNS
SF-539 CNS = tested on: SF-539 CNS
SW-620 colon = tested on: SW-620 colon
RPMI-8226 leukemia = tested on: RPMI-8226 leukemia
HL-60(TB) leukemia = tested on: HL-60(TB) leukemia
MCF7 breast = tested on: MCF7 breast
CAKI-1 renal = tested on: CAKI-1 renal
NCI-H23 lung = tested on: NCI-H23 lung
HS 578T breast = tested on: HS 578T breast
K-562 leukemia = tested on: K-562 leukemia
HT29 colon = tested on: HT29 colon
SR leukemia = tested on: SR leukemia
CCRF-CEM leukemia = tested on: CCRF-CEM leukemia
786-0 renal = tested on: 786-0 renal
HOP-62 NSCLC = tested on: HOP-62 NSCLC
SK-MEL-28 melanoma = tested on: SK-MEL-28 melanoma
LOX IMVI melanoma = tested on: LOX IMVI melanoma
HOP-92 NSCLC = tested on: HOP-92 NSCLC
MALME-3M melanoma = tested on: MALME-3M melanoma
SN12C renal = tested on: SN12C renal
A498 renal = tested on: A498 renal
RXF 393 renal = tested on: RXF 393 renal
HCT-116 colon = tested on: HCT-116 colon
NCI-H522 lung = tested on: NCI-H522 lung
HCC-2998 colon = tested on: HCC-2998 colon
SK-MEL-5 melanoma = tested on: SK-MEL-5 melanoma
UACC-257 melanoma = tested on: UACC-257 melanoma
OVCAR-4 ovarian = tested on: OVCAR-4 ovarian
UACC-62 melanoma = tested on: UACC-62 melanoma
BT-549 breast = tested on: BT-549 breast
ACHN renal = tested on: ACHN renal
KM12 colon = tested on: KM12 colon
HCT-15 colon = tested on: HCT-15 colon
M14 melanoma = tested on: M14 melanoma
SNB-19 CNS = tested on: SNB-19 CNS
MOLT-4 leukemia = tested on: MOLT-4 leukemia
OVCAR-3 ovarian = tested on: OVCAR-3 ovarian
OVCAR-8 ovarian = tested on: OVCAR-8 ovarian
SF-295 CNS = tested on: SF-295 CNS
NCI/ADR-RES ovarian = tested on: NCI/ADR-RES ovarian
DU-145 prostate = tested on: DU-145 prostate
IGROV1 ovarian = tested on: IGROV1 ovarian
SK-OV-3 ovarian = tested on: SK-OV-3 ovarian
NCI-H226 lung = tested on: NCI-H226 lung
COLO 205 colon = tested on: COLO 205 colon
SK-MEL-2 melanoma = tested on: SK-MEL-2 melanoma
NCI-H460 lung = tested on: NCI-H460 lung
OVCAR-5 ovarian = tested on: OVCAR-5 ovarian
UO-31 renal = tested on: UO-31 renal
U251 CNS = tested on: U251 CNS
TK-10 renal = tested on: TK-10 renal

Measured: TGI

C(=N\c1cc2cc(Sc3ccccc3)ccc2[nH]1)/c1ccccc1
not listed: IGROV1 ovarian | SK-OV-3 ovarian | NCI-H226 lung | COLO 205 colon | SK-MEL-2 melanoma | NCI-H460 lung | OVCAR-5 ovarian | UO-31 renal | U251 CNS | TK-10 renal
> 12.5 µM: all other assays above

CCOc1cc(NC(C)=O)ccc1C(=O)NNS(=O)(=O)c1ccc(Cl)cc1Cl
26.6 µM: RPMI-8226 leukemia
22 µM: MOLT-4 leukemia
45.1 µM: MDA-MB-435
21.4 µM: K-562 leukemia
23.1 µM: MDA-N
not listed: U251 CNS | TK-10 renal
> 50 µM: all other assays above

CCC(=O)Nc1cccc(NC(=O)c2c(Cl)c(Cl)c(Cl)c(Cl)c2-c2nc3ccccc3[nH]2)c1
66.5 µM: HOP-92 NSCLC
not listed: HOP-62 NSCLC | SK-OV-3 ovarian | NCI-H226 lung | U251 CNS | TK-10 renal
> 100 µM: all other assays above

CN(C)c1ccc(C2C(Cl)C(=O)N2NC(=O)c2c(Cl)c(Cl)c(Cl)c(Cl)c2-c2nc3ccccc3[nH]2)cc1 (stereo unspecified)
43.5 µM: SF-268 CNS
23.9 µM: HOP-92 NSCLC | HCT-116 colon
22.5 µM: DU-145 prostate
40.2 µM: A498 renal
57.4 µM: SF-539 CNS
34.6 µM: ACHN renal
8.96 µM: RXF 393 renal
48.6 µM: SK-MEL-5 melanoma
94.3 µM: SNB-19 CNS
37.5 µM: UACC-62 melanoma
38.4 µM: SN12C renal
29.7 µM: NCI-H23 lung
17.2 µM: IGROV1 ovarian
50.9 µM: PC-3 prostate
44.6 µM: UACC-257 melanoma
55.8 µM: MDA-N
28.8 µM: HL-60(TB) leukemia
33.2 µM: BT-549 breast
48.4 µM: KM12 colon
68.9 µM: HT29 colon
25.2 µM: T-47D breast
66.1 µM: COLO 205 colon
41.1 µM: CAKI-1 renal
67.4 µM: EKVX NSCLC
44.7 µM: OVCAR-3 ovarian
78.5 µM: UO-31 renal
23.1 µM: MCF7 breast
6.2 µM: 786-0 renal
30 µM: LOX IMVI melanoma
86.7 µM: SK-MEL-2 melanoma
51.7 µM: M14 melanoma
32.6 µM: HCT-15 colon
11.9 µM: NCI-H522 lung
30.2 µM: HCC-2998 colon
36.3 µM: MALME-3M melanoma
69.7 µM: NCI-H226 lung
44.3 µM: SNB-75 CNS
not listed: RPMI-8226 leukemia | HOP-62 NSCLC | OVCAR-4 ovarian | OVCAR-8 ovarian | NCI-H460 lung | U251 CNS | TK-10 renal
> 100 µM: all other assays above

O=C1CC(=O)c2c(N3CCCC3)sc(N3CCCC3)c21
> 100 µM: all assays above
